According to patent US8710043B2, “TRPM8 antagonists and their use in treatments” (Amgen Inc., priority 2011, dated 2014):

biological target: T1, human TRPM8 (Homo sapiens, UniProt Q7Z2W7); test: Luminescence readout assay for measuring intracellular calcium, icilin activation; type: cell-based; details: CHO cells expressing human TRPM8, aequorin luminescence, 1 μM icilin activation; read-out: hTRPM8 IC50
T1 construct: expressed in transfected cells; host or cells: Chinese hamster ovary (CHO) cells, T-REx tetracycline-inducible system, co-transfected with aequorin
Method: Luminescence Readout Assay for Measuring Intracellular Calcium.
A stable Chinese hamster ovary cell line expressing human TRPM8 was generated using tetracycline inducible T-REx™ expression system from Invitrogen, Inc. (Carlsbad, Calif.). […] Twenty four hours before the assay, cells were seeded in 96-well plates and TRPM8 expression was induced with 0.5 μg/mL tetracycline. […] Potential antagonists were added 2.5 min prior to the addition of agonist, 1 μM icilin, 100 μM L-menthol, or 1 min prior to the addition of cold buffer (<10° C.). The luminescence was measured by a CCD camera based FLASH-luminometer built by Amgen, Inc. A cooling device attached to FLASH luminometer was used for cold activation.

T1 sequence (Q7Z2W7 whole entry): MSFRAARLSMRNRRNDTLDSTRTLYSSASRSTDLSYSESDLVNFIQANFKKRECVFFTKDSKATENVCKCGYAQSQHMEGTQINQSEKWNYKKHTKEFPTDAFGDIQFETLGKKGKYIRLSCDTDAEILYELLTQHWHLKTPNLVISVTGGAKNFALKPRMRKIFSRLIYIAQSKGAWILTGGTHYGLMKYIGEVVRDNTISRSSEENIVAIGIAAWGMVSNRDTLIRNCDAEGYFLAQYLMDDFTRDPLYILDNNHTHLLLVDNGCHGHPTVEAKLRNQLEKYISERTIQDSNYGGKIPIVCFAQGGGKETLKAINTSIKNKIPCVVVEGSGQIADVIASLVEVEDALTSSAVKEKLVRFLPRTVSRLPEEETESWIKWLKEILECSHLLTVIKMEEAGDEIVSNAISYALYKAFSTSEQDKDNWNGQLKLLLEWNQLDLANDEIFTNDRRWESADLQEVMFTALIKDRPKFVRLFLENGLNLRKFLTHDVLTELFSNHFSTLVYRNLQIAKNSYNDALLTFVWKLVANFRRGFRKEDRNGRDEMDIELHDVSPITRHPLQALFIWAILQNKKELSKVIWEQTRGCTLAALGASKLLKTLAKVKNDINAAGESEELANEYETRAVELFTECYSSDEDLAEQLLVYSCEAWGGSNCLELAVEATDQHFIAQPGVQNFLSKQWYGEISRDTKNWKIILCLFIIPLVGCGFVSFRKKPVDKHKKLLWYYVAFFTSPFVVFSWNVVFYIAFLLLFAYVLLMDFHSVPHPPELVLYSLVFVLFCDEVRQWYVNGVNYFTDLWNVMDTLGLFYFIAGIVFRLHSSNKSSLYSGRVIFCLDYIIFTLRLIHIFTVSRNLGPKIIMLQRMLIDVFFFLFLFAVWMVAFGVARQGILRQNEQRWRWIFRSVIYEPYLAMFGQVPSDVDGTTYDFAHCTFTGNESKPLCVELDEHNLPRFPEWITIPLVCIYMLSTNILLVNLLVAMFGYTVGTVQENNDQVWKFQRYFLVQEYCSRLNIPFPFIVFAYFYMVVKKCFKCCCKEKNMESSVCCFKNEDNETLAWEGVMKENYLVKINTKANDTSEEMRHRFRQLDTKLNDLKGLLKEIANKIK

| SMILES | IC50 [nM] |
| --- | --- |
| O=C(N[C@@H](c1ccc(C(F)(F)F)cc1)c1ncccc1C(F)(F)F)c1ccc2c(c1)NCCC2 [Example 274, (S)—N-((4-(Trifluoromethyl)phenyl)(3-(trifluoromethyl)pyridin-2-yl)methyl)-1,2,3,4-tetrahydroquinoline-7-carboxamide] | 198 |
| COCCC(=O)N[C@@H](c1ccc(C(F)(F)F)cc1)c1ncccc1C(F)(F)F [Example 224, (S)-3-methoxy-N-((4-(trifluoromethyl)phenyl)(3-(trifluoromethyl)pyridin-2-yl)methyl)propanamide] | 1400 |
| CC1(C)C[C@H]1c1cccnc1[C@@H](NC(=O)c1ccc2ncccc2c1)c1ccc(C(F)(F)F)cc1 [Example 233, N-((S)-(3-((R)-2,2-dimethylcyclopropyl)pyridin-2-yl)(4-(trifluoromethyl)phenyl)methyl)quinoline-6-carboxamide] | 83.1 |
| CC(C)(C(=O)O)C(=O)N[C@@H](c1ccc(C(F)(F)F)cc1)c1ncccc1C(F)(F)F [Example 243, (S)-2,2-dimethyl-3-oxo-3-(((4-(trifluoromethyl)phenyl)(3-(trifluoromethyl)pyridin-2-yl)methyl)amino)propanoic acid] | 1440 |
| O=C(N[C@@H](c1ccc(C(F)(F)F)c(F)c1)c1ncccc1C(F)(F)F)c1cnccn1 [Example 111, (S)-N-((3-fluoro-4-(trifluoromethyl)phenyl)(3-(trifluoromethyl)pyridin-2-yl)methyl)pyrazine-2-carboxamide] | 55.9 |
| O=C(N[C@@H](c1ccc(OC(F)(F)F)c(F)c1)c1ncccc1C(F)(F)F)c1ccc(=O)[nH]c1 [Example 383, (S)-N-((3-fluoro-4-(tritluoromethoxy)phenyl)(3-(trifluoromethyl)pyridin-2-yl)methyl)-6-oxo-1,6-dihydropyridine-3-carboxamide] | 7.9 |
| O=C(N[C@@H](c1ccc(I)cc1)c1ncccc1C(F)(F)F)c1ccc(=O)[nH]c1 (stereo in doubt) [Example 376, N-((4-iodophenyl)(3-(trifluoromethyl)pyridin-2-yl)methyl)-6-oxo-1,6-dihydropyridine-3-carboxamide] | 53 |
| CC(=O)Oc1ccc(C(=O)N[C@@H](c2ccc(C(F)(F)F)cc2)c2ncccc2C(F)(F)F)cc1 [Example 174, (S)-4-(((4-(trifluoromethyl)phenyl)(3-trifluoromethyl)methyl)carbamoyl)phenyl acetate] | 22.9 |
| Cc1ccnn1CC(=O)N[C@@H](c1ccc(C(F)(F)F)cc1)c1ncccc1C(F)(F)F [Example 153, (S)-2-(5-methyl-1H-pyrazol-1-yl)-N-((4-(trifluoromethyl)phenyl)(3-(trifluoromethyl)pyridin-2-yl)methyl)acetamide] | 373 |
| O=C(N[C@@H](c1ccc(C(F)(F)F)cc1)c1ncccc1C(F)(F)F)c1c[nH]c2ncncc12 [Example 45, (S)-N-((4-(trifluoromethyl)phenyl)(3-(trifluoromethyl)pyridin-2-yl)methyl)-7H-pyrrolo[2,3-d]pyrimidine-5-carboxamide] | 63.5 |
| O=C(N[C@@H](c1ccc(C(F)(F)F)cc1)c1ncccc1C(F)(F)F)c1cccc(C(=O)c2ccccc2)c1 [Example 246, (S)-3-benzoyl-N-((4-(trifluoromethyl)phenyl)(3-(trifluoromethyl)pyridin-2-yl)methyl)benzamide 2,2,2-trifluoroacetate] | 210 |
| Cn1cc(C(=O)N[C@@H](c2ccc(F)c(F)c2)c2ncccc2F)ccc1=O [Example 332, (S)-N-((3,4-difluorophenyl)(3-fluoropyridin-2-yl)methyl)-1-methyl-6-oxo-1,6-dihydropyridine-3-carboxamide] | 268 |
| O=C(Cn1ccnc1)N[C@@H](c1ccc(C(F)(F)F)cc1)c1ncccc1C(F)(F)F [Example 161, (S)-2-(1H-imidazol-1-yl)-N-((4-(trifluoromethyl)phenyl)(3-(trifluoromethyl)pyridin-2-yl)methyl)acetamide 2,2,2-trifluoroacetate] | 3370 |
| Cn1cnc2cc(C(=O)N[C@@H](c3ccc(C(F)(F)F)cc3)c3ncccc3F)ccc21 [Example 394, (S)-N-((3-fluoropyridin-2-yl)(4-(trifluoromethyl)phenyl)methyl)-1-methyl-1H-benzo[d]imidazole-5-carboxamide] | 35.4 |
| CC1(C#Cc2cccnc2[C@@H](NC(=O)c2ccc3ncccc3c2)c2ccc(C(F)(F)F)cc2)COC1 [Example 101, (S)-N-((3-((3-methyloxetan-3-yl)ethynyl)pyridin-2-yl)(4-(trifluoromethyl)phenyl)methyl)quinoline-6-carboxamide 2,2,2-trifluoroacetate] | 395 |
| O=C(O)C1CCC(C(=O)N[C@@H](c2ccc(C(F)(F)F)cc2)c2ncccc2C(F)(F)F)CC1 (stereo partly drawn) [Example 244, (S)-4-(((4-(trifluoromethyl)phenyl)(3-(trifluoromethyl)pyridin-2-yl)methyl)carbamoyl)cyclohexanecarboxylic acid] | 3380 |
| O=C(N[C@@H](c1ccc(C(F)(F)F)cc1)c1ncccc1C(F)(F)F)c1ccc(I)cc1 [Example 122, (S)-4-iodo-N-((4-(trifluoromethyl)phenyl)(3-(trifluoromethyl)pyridin-2-yl)methyl)benzamide] | 107 |
| O=C(N[C@@H](c1ccc(OC(F)(F)F)c(F)c1)c1ncccc1F)c1c[nH]c(=O)cn1 [Example 353, (S)-N-((3-fluoro-4-(trifluoromethoxy)phenyl)(3-fluoropyridin-2-yl)methyl)-5-oxo-4,5-dihydropyrazine-2-carboxamide] | 27.7 |
| O=C(N[C@@H](c1cnc2ccc(Cl)cc2c1)c1ncccc1C(F)(F)F)c1ccc(=O)[nH]c1 [Example 16, (S)-N-((6-chloroquinolin-3-yl)(3-(trifluoromethyl)pyridin-2-yl)methyl)-6-hydroxynicotinamide] | 80.7 |
| O=C(N[C@@H](c1ccc(Cl)c(Cl)c1)c1ncccc1C(F)(F)F)c1ccc2cccnc2c1 [Example 10] | 20.5 |
| COc1ccnc(C(NC(=O)c2ccc(=O)[nH]c2)c2ccc(OC(F)(F)F)c(F)c2)c1 (stereo not shown) [Example 422, N-((3-fluoro-4-(trifluoromethoxy)phenyl)(4-methoxypyridin-2-yl)methyl)-6-oxo-1,6-dihydropyridine-3-carboxamide] | 841 |
| O=C(N[C@@H](c1ccc(OC(F)(F)F)cc1)c1ncccc1F)c1c[nH]c(=O)cn1 [Example 354, (S)-N-((3-fluoropyridin-2-yl)(4-(trifluoromethoxy)phenyl)methyl)-5-oxo-4,5-dihydropyrazine-2-carboxamide] | 68.1 |
| N#Cc1cccnc1[C@@H](NC(=O)c1ccc2cccnc2c1)c1ccc(C(F)(F)F)cc1 [Example 278, (S)—N-((3-Cyanopyridin-2-yl)(4-(trifluoromethyl)phenyl)-methyl)quinoline-7-carboxamide] | 317 |
| O=C(N[C@@H](c1ccc(OC(F)(F)F)cc1)c1ncccc1F)c1ccc(-c2nc(=O)o[nH]2)cc1 [Example 316, (S)-N-((3-fluoropyridin-2-yl)(4-(trifluoromethoxy)phenyl)methyl)-4-(5-oxo-2,5-dihydro-1,2,4-oxadiazol-3-yl)benzamide] | 31.4 |
| N#Cc1cc(C(=O)N[C@@H](c2ccc(C(F)(F)F)cc2)c2ncccc2F)c[nH]c1=O [Example 277, (S)-5-Cyano-N-((3-fluoropyridin-2-yl)(4-(trifluoromethyl)-phenyl)methyl)-6-oxo-1,6-dihydropyridine-3-carboxamide] | 188 |
